Assay results as given in patent US12448425B2, “Therapeutic peptides” (Board of Regents, The University of Texas System, priority 2019, dated 2025).

How the values were obtained:
Bev-resistant RF24 cells = assay: Cell death in bevacizumab-resistant RF24 cells (SYTOX-green flow cytometry); assay type: cell-based
Description: FIGS. 4A-D: BIDEN-AP-based agents inhibit microtubule formation and sensitizes resistant endothelial cells to anti-VEGF antibody. (FIG. 4A, FIG. 4B) Microtubule formation in RF24 cells treated with EFNB2-Fc (2 nM) or BIDEN-AP (15 μM) compared to untreated controls (CTL). Five images per well were taken at ×100 magnification. […] Representative plots from flow cytometry analysis with SYTOX-green are shown. […] Data are presented as mean±SD (n=6). *p<0.05, **p<0.01.
Given the important role of endothelium in adaptive changes with anti-angiogenic therapy (Bergers et al., 2008), we further tested the effects of BIDEN-AP in overcoming resistance to anti-VEGF therapy in RF24 cells. To do this, we first established a bevacizumab (Bev)-resistant RF24 cell line selected though continuous Bev treatment at low dose ([…]) for 2 weeks. The Bev-resistant RF24 cells were maintained at a Bev concentration of […]. Using flow cytometry with SYTOX-green staining, we quantified the live (SYTOX-negative) vs. dead (SYTOX-positive) populations after treatment with BIDEN-AP or CCPM-BIDEN-AP.

EphB4 and Crk1 = assay: Phosphorylation of EphB4 and Crk1 in A2780cp20 cells (IP/immunoblot); assay type: cell-based, human
Description: FIGS. 2A-C: BIDEN-AP acts as an EphB4 agonist. (FIG. 2A) BIDEN-AP induced phosphorylation of EphB4 and the associated […] (Crk1). After 16 h serum starvation, A2780cp20 cells were incubated with EFNB2-Fc (20 nM), TNYL-RAW (SEQ ID NO: 12) (50 μM), or BIDEN-AP (50 μM) for 30 min or 2 h. The uncropped blots were available at Supplemental FIG. 11. (FIG. 2B) BIDEN-AP inhibited A2780cp20 cell invasion compared to untreated control (CTL). A modified Boyden transwell chamber coated with human defined matrigel was used. Experiments were performed in triplicate. Data are presented as mean±SD. ***p<0.001. (FIG. 2C) Alexa647-BIDEN-AP was internalized via receptor-mediated endocytosis. A2780cp20 cells were incubated at 37° C. with Alexa647-BIDEN-AP (0.05 μM), Alexa647-TNYL-RAW (SEQ ID NO: 12) (0.05 μM), or Alexa647-BIDEN-AP (0.05 μM) plus unlabeled TNYL-RAW (SEQ ID NO: 12) (5 μM, blocking). Alexa647-BIDEN-AP but not Alexa647-TNYL-RAW (SEQ ID NO: 12) was internalized into the A2780cp20 cells.
Total protein lysates were harvested and subjected to Nupage-SDS separation followed by immunoblotting. […] CTL, untreated control. The uncropped blots were available at Supplemental FIG. 11.
Immunoblotting, immunoprecipitation, and co-immunoprecipitation. […] The protein concentrations were determined by using a BCA Protein Assay Reagent kit (Pierce Biotechnology, Rockford, IL). […]

Substance: CCPM-BIDEN-AP: nano-conjugate of Cys-BIDEN-AP on core-crosslinked polymeric micelles via maleimide (GMBS) (CTNYLFSPNGPIARAW; D-residues)
- sensitization of Bev-resistant cells to Bev treatment (Bev-resistant RF24 cells): re-sensitized these cells to Bev treatment
- phosphorylation of EphB4 and Crk1 in vitro (EphB4 and Crk1): induce EphB4 and Crk1 phosphorylation
